Earlier results on 1 compound are cited in patent publication US12246026B2, “Ganaxolone for use in treatment of status epilepticus” (Marinus Pharmaceuticals, Inc., priority 2019, dated 2025).

The data set deals with patients with super refractory SE. The note with it: randomized, double-blind, placebo-controlled Phase 3 trial; cited from earlier work.

On to `CC(=O)[C@H]1CC[C@H]2[C@@H]3CC[C@H]4C[C@H](O)CC[C@]4(C)[C@H]3CC[C@]12C` [brexanolone], for which the efficacy over placebo result is listed as “failed to show efficacy over placebo”.
